This is an account of results in patent US20230081529A1 (CBSBIOSCIENCE CO., LTD, priority 2020, published 2023).

Each structure is given as a SMILES string. Like-named read-outs stand apart in the source and are kept apart here.

Assay [1] concerns hepatocellular carcinoma (HCC) patients. The following applies: systemic first-line therapy without predictive biomarkers; cited from earlier work.
The test system is the same in assay [2]. In words: Sorafenib treatment of 73 HCC patients: tumor response (mRECIST) and Kaplan-Meier survival. The class given is in vivo, human. The source says:
This study included 73 histological confirmed HCC patients. […] All tissues were obtained by needle biopsy. The patients were from Ajou Medical Center (AMC). The protocol of this study was approved by the Institutional Review Boards of Ajou Medical Center (AMC).
From a DCR perspective, patients with complete response (CR), partial response (PR) and stable disease (SD) were considered as responders whereas those with progressive disease (PD) were judged as non-responders.
Relationship between treatment response and clinicopathologic variables was evaluated using Chi square tests or Fishers exact tests. Gene expression data were tested for normality with the Shapiro-Wilk test. […] Receiver operating characteristic (ROC) curve analysis was used to determine accuracy of threshold values classifying tumor responders and non-responders using gene signature. Kaplan-Meier survival (KM) curves were calculated using death as end point in overall survival (OS) and using death and progression disease as end point in progression free survival (PFS). The difference in KM curves was examined by log-rank test and the difference in hazard ratio was examined by Cox regression analysis. […] Significance was set at P<0.05 (two-tailed). All statistics were performed in R version 3.3.3 (R Development Core Team, https:/www.r-project.org/).

The mark [3] stands for this setting: entire patients treated with sorafenib.
Setting [4] is: predicted good responders (8-gene signature).
Setting [5] is: predicted poor responders (8-gene signature).

On to `CNC(=O)c1cc(Oc2ccc(NC(=O)Nc3ccc(Cl)c(C(F)(F)F)c3)cc2)ccn1` [sorafenib], for which, in assay [1], the Median overall survival was 10.7 months and the objective response rates is on record as 2%. Further, in assay [2] (setting [3]), the Median overall survival was 11.3 months, the Median progression-free survival was determined as 2.9 months and the “Median time to progression” value is on record as 2.9 months. Also, in assay [2] (entire patients, before selection with the 8-gene signature), the disease control rate came out at 28.77%. In assay [2] (non-responders (n = 52)), the “Tumor response: Progressive disease, number of patients” value stood at 52 and the “Tumor response: Progressive disease, share of group” value came out at 100.0%. Moreover, the “number of non-responders (PD)” value in assay [2] (of 73 patients treated with sorafenib) is 52. In assay [2] (patients selected with the 8-gene signature), this compound displayed a disease control rate of 85.71%. In addition, in assay [2] (setting [4]), the Median progression-free survival is given as 5.8 months and the “Median time to progression” value is listed as 5.8 months. In assay [2] (setting [5]), the Median overall survival is on record as 6.7 months, the Median progression-free survival is 2.8 months and the “Median time to progression” value is reported as 2.8 months. Besides, in assay [2] (responders (n = 21)), the “Tumor response: Complete response, number of patients” value amounted to 2; the “Tumor response: Complete response, share of group” value is given as 9.5%; the “Tumor response: Partial response, number of patients” value was 9; the “Tumor response: Partial response, share of group” value is 42.9%. Besides, in assay [2] (responders (n = 21)), the “Tumor response: Stable disease, number of patients” value was 10 and the “Tumor response: Stable disease, share of group” value is on record as 47.6%.
